In US4670539A, “Peptide growth factors derived from estrogen responsive kidney tissue” (Board of Regents, The University of Texas, priority 1984, dated 1987):

Key:
[1] = system: LLCK-PK1 pig kidney cells; assay: growth promoting effects of EGF and/or KDGF on LLCK-PK1 cells; assay type: cell-based
Description: (§1) Further exploration of this point was done with the cell line designated NRK (normal rat kidney). When used at a low passage number these cells behave as a normal, non-tumorigenic line, as evidenced by their low rates of colony formation in soft agar. This growth pattern facilitated wide spread use of the NRK cells as bioassay targets for alpha- and beta-transforming growth factors. The bioassay of transforming growth factors by soft agar colony formation was shown by others to require the additon of epidermal growth factor (EGF). At higher passage numbers, these cells progressively increase their capacity to form colonies in soft agar without requiring the presence of growth factor supplements to the usual serum containing medium. Using these properties, we have asked whether low and high passage NRK cells responded to KDGF both with and without added EGF. These experiments were conducted in serum free medium, since the presence of even low concentrations (i.e. 1%, vol/vol) of serum inhibited KDGF action. […] Thus with the relatively non-tumorigenic pheno-type NRK cells, KDGF and EGF were synergistic when cells were in sparse culture. […] In a final experiment, the growth promoting effects of EGF and/or KDGF were compared on LLCK-PK1 pig kidney cells. […] EGF alone was mitogenic for LLCK-PK1 cells, whereas KDGF was not. […]

[2] = system: MDCK kidney cell line; assay: growth response of MDCK cells; assay type: cell-based, dog
[3] = system: NRK (normal rat kidney) cells; assay: tritium labeled thymidine incorporation of low and high passage NRK cells, with and without EGF; assay type: cell-based; conditions: low passage NRK cells, serum free medium
Description: as §1

Q: epidermal growth factor [EGF] was tested. Which “mitogenic activity, factor alone” value [1] did it give?
A: Its value is “mitogenic”.

Q: And the growth response [2]?
A: Its growth response is “responded”.

Q: What about the “growth (tritium labeled thymidine incorporation), factor alone” value ([3]; confluent cultures) of the same substance?
A: The value was “Neither KDGF alone nor EGF alone promoted growth”.

Q: And the “mitogenic response, factor alone” value ([3]; non-confluent cultures)?
A: The value was “limited mitogenic responses”.
